{"source": "patent US20210308120A1", "about": "“Use of Amitriptyline for Blocking Brain Hemichannels and Method for Potentiating its Effect in Vivo” (THERANEXUS, priority 2015, published 2021)", "key": {"[1]": {"tested_on": "LPS-injected mice (neuro-inflammation)", "assay": "LPS-induced model of neuro-inflammation (coat state score, weight loss)", "assay_type": "in vivo, mouse", "settings": "amitriptyline 1 mg/kg ± mefloquine 1 mg/kg", "from_the_text": "FIG. 13 represents the coat state scores evaluated three hours after treatment in a LPS-induced model of neuro-inflammation (left graph). The right graph represents the amount of weight loss between three hours of treatment and just before treatment in a LPS-induced model of neuro-inflammation (right graph). Control mice were ip injected with saline solution. […] In both graphs: n=4-6 mice per group, data are presented as means±SEM and compared with a One-way ANOVA followed by Tukey's post-hoc test, *p<0.05, […] versus CONTROL-treated mice.\nAdult Swiss male mice were used in the LPS model. Mice were kept in collective cages for habituation to the facility for one week before experimental testing. Afterwards, they were housed in individual cages two days before the experiment started with food and water ad libitum. Mice were maintained on a light/dark cycle of 12 hours with light onset at 8h00 and with a controlled temperature of 21° C.±1° C. […]\nCoat state score was evaluated three hours after treatment. […] The cleanness fur state was evaluated for each of these five body parts. […]\nGeneral physiological state of the animals was assessed by the normalised weight loss; defined as the difference between weight measures three hours after treatment (T0+24 h) and just before treatment (T0+21 h)."}, "[2]": {"assay": "Pharmacokinetics of amitriptyline/mefloquine in plasma and brain of mice (LC-MS)", "assay_type": "in vivo, mouse", "settings": "amitriptyline 6, 12 mg/kg, mefloquine 0.1, 0.3, 1 mg/kg i.p., 18 days, 2 hours after injection", "description": "Data are presented as mean±SEM.\nAdult male C57BL/6J mice (Charles River, L'Arbresle, France) were used. Mice were kept in collective cages for habituation to the facility for one week before experimental testing with food and water ad libitum. Mice were maintained on a light/dark cycle of 12 hours with light onset at 8h00 and with a controlled temperature of 21° C.±1° C.\nInjections were done twice.\nOn day 18th of treatment, mice received the morning injection and samplings were done 2 hours after the injection. Mice were anesthetized just before sampling (ketamine 68 mg/kg, xylazine 10 mg/kg) and blood was collected by intracardiac puncture (Vacuette tubes, with lithium/heparin gel). The mouse was then decapitated, and the brain extracted and fast frozen in dry ice.\nVacuette tubes with blood were centrifugated (3000 rpm, 20 min), plasma recovered and stored at −80° C. until shipping in dry ice."}, "[3]": {"tested_on": "SN-CCI rats (neuropathic pain, hyperalgesia)", "assay": "Randall & Selitto test in SN-CCI rats, chronic 14-day administration", "assay_type": "in vivo, rat", "settings": "amitriptyline 12 mg/kg s.c. osmotic pump; mefloquine 0.5 mg/kg i.p. twice a day; 14 days; vs saline", "from_the_text": "Data are the means±S.E.M. of n=8-14 rats.\nData are the means±S.E.M. of n=8-14 rats. *p<0.05, **p<0.01, ***p<0.001 as compared with “saline+saline” group at the same time, ≠p<0.05 as compared between amitriptyline groups, two-way ANOVA, Bonferroni test.\nOne week after their arrival, rats were anesthetized with sodium pentobarbital before exposing the common sciatic nerve. As described in Bennett's article, four chromic catgut (5-0) ligations were tied loosely proximally to the sciatic trifurcation (Bennett and Xie, 1988).\nAll behavioral assessments were conducted between 9 a.m. and 5 p.m. in a quiet room. An increasing pressure was applied to the right hind paw of SN-CCI (Sciatic Nerve-Chronic Constriction Injury) rat to evaluate hyperalgesia-like behavior (Viguier and al, 2013). Values correspond to the pressure threshold producing the paw withdrawal and then the vocalization of the rat.\nOsmotic mini-pumps (Alzet, model 2ML2), delivering for the following 14 days amitriptyline or vehicle were subcutaneously implanted.\na) Rats were ligated on sciatic nerve and then tested with the Randall & Selitto test 14 days after surgery, to evaluate hyperalgesia quantified as pressure threshold. Neuropathic rats, characterized by a decrease of pressure threshold after surgery, were then treated during 14 days and tested by the Randall & Selitto test during this period."}, "mice subjected to FST": {"tested_on": "mice subjected to FST", "assay": "Forced Swim Test (FST)", "assay_type": "in vivo, mouse", "settings": "2nd 3-min period", "description": "The FST is the most used rodent model for screening antidepressants (Porsolt et al, 1977). Mice were dropped individually in a glass cylinder (25 cm high, 9 cm diameter) filled with 10 cm 25° C. water. The experiment was recorded with a camcorder, placed in front of the glass cylinders. Video were scored at a later time by an experimenter blind to the treatments. The indices of depression-related behavior are the immobility time, the swimming time and the climbing time.\nFST test evaluates the despair behavior which is commonly reversed by antidepressants. During FST, the swimming time of each mouse was measured on each 1-min period, on 1st and 2nd 3-min periods."}}, "data": [{"smiles": "CN(C)CCC=C1c2ccccc2CCc2ccccc21", "note": "[amitriptyline, 3-(5,6-dihydrodibenzo[2,1-b:2′,1′-f][7]annulen-11-ylidene)-N,N-dimethylpropan-1-amine]", "values": [{"measurement": "Weight loss", "setting": "[1]; between just before and three hours after oral treatment", "value": "induces a decrease in weight loss"}, {"measurement": "Coat state score (grooming activity)", "setting": "[1]; three hours after oral treatment, LPS 0.33 mg/kg i.p.", "value": "tendency to reduce the deterioration of coat state"}, {"measurement": "Concentrations in blood and brain tissue", "setting": "[2]", "value": "dose-dependent"}, {"measurement": "Paw withdrawal threshold (pressure)", "setting": "[3]", "value": "significant increase of the paw withdrawal threshold at day 14"}, {"measurement": "Vocalization threshold (pressure)", "setting": "[3]", "value": "increase of the vocalization threshold"}, {"measurement": "Swimming time", "setting": "mice subjected to FST; amitriptyline 12 mg/kg per os alone", "value": "not significant"}, {"measurement": "Swimming time", "setting": "mice subjected to FST; amitriptyline 24 mg/kg per os, single", "value": "significant increase of the swimming time"}]}]}
